melting point	Compound
179 to 181 °C	COC(=O)C=Cc1ccc(OCC2CN(c3ccccc3)C(=O)O2)cc1 (centres undefined)
307 to 308 °C	Cn1c(CN2C(=O)c3ccccc3C2=O)c(-c2ccc(O)cc2)c2cc(Cl)ccc2c1=O
127 to 129 °C	Cc1cc(-c2ccccc2)nc(-c2cccc([N+](=O)[O-])c2)c1C(=O)N1CCN(C)CC1
< 50 °C	CC=Cc1cccc2c1OC(c1ccccc1)CC2=O (centres undefined)
121 to 123 °C	O=[N+]([O-])c1ccc(N2C[C@H]3CN(Cc4ccccc4)C[C@H]3C2)cc1
134 to 135 °C	CCCCCC(CC(=O)Nc1cc(C(N)=O)ccc1C(C)(C)C)c1ccc(OCCOC)cc1OC (centres undefined)
214 to 216 °C	N#Cc1ccc(S(=O)(=O)Nc2ccc(Br)c3cc[nH]c23)cc1
185 °C	C/C=C/c1ccc2c(NCc3ccc(NC(=O)c4ccc(Cl)nc4)cc3)nc(N(C)C)nc2c1
153 to 155 °C	COc1cccc(Cc2cc(F)ccc2O)c1
179 to 181 °C	Cc1ccc(-c2ccc(C(=O)Nc3cc4ncc(CN5CCCC5)cc4cc3F)c(F)c2)cc1
100 °C	CC(=O)Oc1ccc(-c2ccc(C(C)=O)cc2)cc1Br
177 to 178 °C	O=C(Nc1ccccc1)N1CCc2cc(S(=O)(=O)N3CCN(c4cccc(Cl)c4)CC3)ccc21
68 to 71 °C	COC(=O)c1c(/C=C/c2ccccc2)ccc2ccccc12
114 to 117 °C	CS(=O)(=O)Nc1ccccc1OC/C=C/CN1CCC(OC(c2ccccc2)c2cccs2)CC1 (centres undefined)
112 to 113 °C	O=C1C(=Cc2ccccc2)COc2ccccc21
119 to 123 °C	COc1cc2ccccc2c(OC)c1C(=O)O
222 to 223 °C	O=C(O)c1cccc(-c2ccc3c(c2)N(c2ccc(Cl)cc2Cl)CCO3)c1
105 to 108 °C	CCOC(=O)N(c1cccc(C(F)(F)F)c1)c1ccccc1N
98 to 100 °C	C=CC(=O)OC(COc1ccc(C(=O)c2ccccc2)c(O)c1)COc1ccc(C(=O)c2ccccc2)c(O)c1
260 °C	Cn1cncc1C(O)(c1ccc(Cl)cc1)c1ccc2c(c1)C(c1cccc(Cl)c1)OCC(=O)N2 (centres undefined)
114 to 117 °C	COC(=O)c1cc(-c2ccc(OC)c(F)c2)nn(CC2CC2)c1=O

More lines, now with the values behind:

Compound	melting point
CC(C)(C)c1cc(C(=S)SC(C)(C)c2ccccc2)cc(C(C)(C)C)c1O	100 to 104 °C
O=C(O)CNc1cc(Cl)ccc1C(=O)O	231 °C
C[Si](C)(C)CCc1cn(-c2c(Cl)cc(C(F)(F)F)cc2Cl)nc1C#N	128 to 129 °C
CCOC(=O)CN(C)C=C(Cl)C#N	57 °C
CCCc1cc(Cl)c(OC(=S)N(C)C)c(C(C)=O)c1OC(C)=O	86 to 88 °C
CC(=O)Nc1nc2c(s1)-c1c(cnn1C(N)=O)CC2	265 to 270 °C
O=S1(=O)N=C(NC2CCCC2)Nc2cc(Cl)sc21	291 to 292 °C
Cn1ncnc1COc1nn2c(-c3ccccc3F)nnc2cc1-c1cccs1	189 to 190 °C
CN1CCCC(CC(=O)c2ccc(Cl)c(Cl)c2)C1 (centres undefined)	69 to 71 °C
COC(=O)c1cc(-n2cnnn2)ccc1OC	185 to 187 °C
CCOc1ccc(C=NOCCO)cn1	52 to 54 °C
CCc1c(C(=O)C(N)=O)c2c(OCC(=O)N(C)OC)cccc2n1Cc1ccccc1	168 to 170 °C
Cc1cc(C(N)=O)ncc1C(c1c(F)ccc(F)c1F)S(=O)(=O)c1ccc(F)c(F)c1 (centres undefined)	200 to 201 °C
CN1C(=O)C2CC2(c2ccc(N(C)C)cc2)C1=O (centres undefined)	140 °C
C#CCN1CCC(OC)(c2cc(F)cc(Sc3ccc(C(C)=NO)cc3)c2)C1 (centres undefined)	97 to 99 °C
CCN(CC)CCCNc1nnc(-c2ccc(F)c(F)c2Nc2ccc(I)cc2F)o1	116 to 118 °C
Cc1nnc(-c2ccc(F)cc2F)n2nc(OCc3ncnn3C)c(-c3ccsc3)c12	144 to 146 °C
O=c1c2cccc3c2n(c(=O)n1CC(O)CO)-c1cc(C(F)(F)F)ccc1S3(=O)=O (centres undefined)	223 to 226 °C

Reference: a melting point compilation (Tetko et al.; mined from patent text by program, amines drawn as free bases though some values may be those of a salt)
